Test results as given in US10098902B2, “Arginase inhibitors as therapeutics” (Mars, Incorporated, priority 2010, dated 2018).

Assays:
human arginase I (ARG I) = human arginase I (ARG I) (Homo sapiens (Human), UniProt P05089); assay: Inhibition of arginase I, spectrophotometric urea assay at 530 nm; format: biochemical; details: potency rank 1-5; pH 7.4, 37° C., 60 minutes
Procedure: (§1) Inhibition of arginase I (ARG I) and arginase II (ARG II) by Formula I or Formula II compounds is followed spectrophotometrically at 530 nm. The compound to be tested was dissolved in DMSO at an initial concentration 50-fold greater than its final concentration in the cuvette. 10 μl of the stock solution was diluted in 90 μl of the assay buffer that comprises 0.1M sodium phosphate buffer containing 130 mM NaCl, pH 7.4, to which is added ovalbumin (OVA) at a concentration of 1 mg/ml. Solutions of arginase I and II were prepared in 100 mM sodium phosphate buffer, pH 7.4 containing 1 mg/ml of OVA to give an arginase stock solution at a final concentration of 100 ng/ml.
(§2) To each well of a 96-well microtiter plate was added 40 μl of enzyme, 10 μl of an inventive compound and 10 μl of enzyme substrate (L-arginine+manganese sulfate). For wells that were used as positive controls, only the enzyme and its substrate were added, while wells used as negative controls contained only manganese sulfate.
(§3) After incubating the microtiter plate at 37° C. for 60 minutes, 150 μl of a urea reagent obtained by combining equal proportions (1:1) of reagents A and B is added to each well of the microtiter plate to stop the reaction. The urea reagent is made just before use by combining Reagent A (10 mM o-phthaldialdehyde, and 0.4% polyoxyethylene (23) lauryl ether (w/v) in 1.8 M sulfuric acid) with Reagent B (1.3 mM primaquine diphosphate, 0.4% polyoxyethylene (23) lauryl ether (w/v), 130 mM boric acid in 3.6 mM sulfuric acid). After quenching the reaction mixture, the microtiter plate is allowed to stand for an additional 10 minutes at room temperature to allow the color to develop. The inhibition of arginase was computed by measuring the optical density (OD) of the reaction mixture at 530 nm and normalizing the OD value to percent inhibition observed in the control. The normalized OD is then used to generate a dose-response curve by plotting the normalized OD values against log [concentration] and using regression analysis to compute the IC50 values.

[1] = target: human arginase II (ARG II) (Homo sapiens (Human), UniProt P78540); assay: Inhibition of arginase II, spectrophotometric urea assay at 530 nm; format: biochemical; details: potency rank 1-5; pH 7.4, 37° C., 60 minutes
Chain of human arginase II (ARG II) (P78540 23-354): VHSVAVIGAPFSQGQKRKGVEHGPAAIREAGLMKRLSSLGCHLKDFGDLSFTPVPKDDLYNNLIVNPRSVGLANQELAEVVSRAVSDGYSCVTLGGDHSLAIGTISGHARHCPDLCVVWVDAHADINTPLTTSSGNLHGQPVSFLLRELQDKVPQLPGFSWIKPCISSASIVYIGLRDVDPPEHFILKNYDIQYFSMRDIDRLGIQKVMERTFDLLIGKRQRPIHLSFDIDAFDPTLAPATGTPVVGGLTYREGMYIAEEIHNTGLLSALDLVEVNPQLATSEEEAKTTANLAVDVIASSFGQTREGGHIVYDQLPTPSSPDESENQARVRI
Procedure: as §1, §2, §3

Chain of human arginase I (ARG I) (P05089 whole entry): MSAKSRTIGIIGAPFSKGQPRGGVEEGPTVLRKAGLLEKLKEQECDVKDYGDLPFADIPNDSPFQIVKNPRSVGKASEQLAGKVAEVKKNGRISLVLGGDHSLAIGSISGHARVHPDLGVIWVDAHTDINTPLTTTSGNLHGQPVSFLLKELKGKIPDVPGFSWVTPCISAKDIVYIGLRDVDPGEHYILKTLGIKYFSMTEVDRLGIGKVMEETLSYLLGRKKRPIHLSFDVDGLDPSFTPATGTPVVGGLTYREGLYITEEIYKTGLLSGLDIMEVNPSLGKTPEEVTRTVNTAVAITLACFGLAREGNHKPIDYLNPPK

Question: How did the IC50 (human arginase I (ARG I)) turn out when CCN(CC)CCN1C[C@H](CCCB(O)O)[C@](N)(C(=O)O)C1 [Example 34, (3R,4S)-3-amino-4-(3-boronopropyl)-1-(2-(diethylamino)ethyl)pyrrolidine-3-carboxylic acid] was run?
Answer: The IC50 was 0.1 to 250 nM.

Question: And the IC50 [1]?
Answer: Its IC50 is 251 to 1000 nM.

Question: For N[C@@]1(C(=O)O)CN(C(=O)Nc2ccc(F)cc2)C[C@@H]1CCCB(O)O (racemic) [Example 48, (3R,4S)-3-amino-4-(3-boronopropyl)-1-(4-fluorophenylcarbamoyl)pyrrolidine-3-carboxylic acid], which IC50 (human arginase I (ARG I)) is on record?
Answer: Its IC50 is 251 to 1000 nM.

Question: And the IC50 [1]?
Answer: Its IC50 is 251 to 1000 nM.

Question: Which results are given for N[C@@]1(C(=O)O)CN(Cc2c[nH]cn2)C[C@@H]1CCCB(O)O [Example 20, (3R,4S)-1-((1H-imidazol-4-yl)methyl)-3-amino-4-(3-boronopropyl)pyrrolidine-3-carboxylic acid]?
Answer: IC50 (human arginase I (ARG I)): 0.1 to 250 nM; IC50 [1]: 251 to 1000 nM

Question: Which results are given for N[C@@]1(C(=O)O)CCC[C@@H]1CCCB(O)O (racemic) [Example 1, (1S,2S)-1-amino-2-(3-boronopropyl)cyclopentanecarboxylic acid]?
Answer: IC50 (human arginase I (ARG I)): 251 to 1000 nM; IC50 [1]: 251 to 1000 nM

Question: What does the source list for N[C@@]1(C(=O)O)CN(Cc2ccccc2)C[C@@H]1CCCB(O)O [Example 12, (3R,4S)-3-amino-1-benzyl-4-(3-boronopropyl)pyrrolidine-3-carboxylic acid]?
Answer: IC50 (human arginase I (ARG I)): 251 to 1000 nM; IC50 [1]: 1000 to 2000 nM

Question: With N[C@@]1(C(=O)O)CN(C[C@@H]2Cc3ccccc3CN2)C[C@@H]1CCCB(O)O [Example 39, (3R,4S)-3-amino-4-(3-boronopropyl)-1-(((S)-1,2,3,4-tetrahydroisoquinolin-3-yl)methyl)pyrrolidine-3-carboxylic acid] as the molecule, how does the IC50 (human arginase I (ARG I)) read?
Answer: The IC50 was 0.1 to 250 nM.

Question: And the IC50 [1]?
Answer: Its IC50 is 0.1 to 250 nM.

Question: What does the source list for N[C@@]1(C(=O)O)CN(C2CCC(C(=O)O)CC2)C[C@@H]1CCCB(O)O (stereo partly drawn) [Example 30, (3R,4S)-3-amino-4-(3-boronopropyl)-1-(4-carboxycyclohexyl)pyrrolidine-3-carboxylic acid]?
Answer: IC50 (human arginase I (ARG I)): 251 to 1000 nM; IC50 [1]: 1000 to 2000 nM

Question: N[C@@]1(C(=O)O)CN(CC2Cc3c(Cl)cc(Cl)cc3CN2)C[C@@H]1CCCB(O)O (stereo partly drawn) [Example 59, (3R,4S)-3-amino-4-(3-boronopropyl)-1-((5,7-dichloro-1,2,3,4-tetrahydroisoquinolin-3-yl)methyl)pyrrolidine-3-carboxylic acid] was tested. Which IC50 (human arginase I (ARG I)) did it give?
Answer: Its IC50 is 0.1 to 250 nM.

Question: What about the IC50 [1] of the same molecule?
Answer: The IC50 was 0.1 to 250 nM.

Question: For NCC[C@H]1C[C@H](CCCB(O)O)[C@](N)(C(=O)O)C1 (racemic) [Example 66, (1S,2S,4R)-1-amino-4-(2-aminoethyl)-2-(3-boronopropyl)cyclopentanecarboxylic acid], which IC50 (human arginase I (ARG I)) is on record?
Answer: The IC50 was 0.1 to 250 nM.

Question: And the IC50 [1]?
Answer: The IC50 was 0.1 to 250 nM.

Question: N[C@@]1(C(=O)O)CN(Cc2ccccn2)C[C@@H]1CCCB(O)O [Example 29, (3R,4S)-3-amino-4-(3-boronopropyl)-1-(pyridin-2-ylmethyl)pyrrolidine-3-carboxylic acid] was tested. Which IC50 (human arginase I (ARG I)) did it give?
Answer: The IC50 was 1000 to 2000 nM.

Question: And the IC50 [1]?
Answer: The IC50 was 1000 to 2000 nM.

Question: With NCCN1C[C@H](CCCB(O)O)[C@](N)(C(=O)O)C1 [Example 24, (3R,4S)-3-amino-1-(2-aminoethyl)-4-(3-boronopropyl)pyrrolidine-3-carboxylic acid] as the molecule, how does the IC50 (human arginase I (ARG I)) read?
Answer: Its IC50 is 0.1 to 250 nM.

Question: And the IC50 [1]?
Answer: Its IC50 is 0.1 to 250 nM.

Question: Which IC50 (human arginase I (ARG I)) does the source give for N[C@@]1(C(=O)O)CN(C(=O)[C@@H]2CCCN2)C[C@@H]1CCCB(O)O [Example 43, (3R,4S)-3-amino-4-(3-boronopropyl)-1-((S)-pyrrolidine-2-carbonyl)pyrrolidine-3-carboxylic acid] here?
Answer: The IC50 was 0.1 to 250 nM.

Question: What about the IC50 [1] of the same molecule?
Answer: Its IC50 is 251 to 1000 nM.

Question: Which IC50 (human arginase I (ARG I)) does the source give for N[C@@]1(C(=O)O)CN(c2ncnc3nc[nH]c23)C[C@@H]1CCCB(O)O [Example 23, (3R,4S)-3-amino-4-(3-boronopropyl)-1-(7H-purin-6-yl)pyrrolidine-3-carboxylic acid] here?
Answer: The IC50 was 251 to 1000 nM.

Question: And the IC50 [1]?
Answer: Its IC50 is 1000 to 2000 nM.

Question: Which results are given for N[C@@]1(C(=O)O)CN(CCN2CCCC2)C[C@@H]1CCCB(O)O [Example 38, (3R,4S)-3-amino-4-(3-boronopropyl)-1-(2-(pyrrolidin-1-yl)ethyl)pyrrolidine-3-carboxylic acid]?
Answer: IC50 (human arginase I (ARG I)): 0.1 to 250 nM; IC50 [1]: 0.1 to 250 nM

Question: What does the source list for N[C@@]1(C(=O)O)CN(C2CCCNC2)C[C@@H]1CCCB(O)O (stereo partly drawn) [Example 28, (3R,4S)-3-amino-4-(3-boronopropyl)-1-(piperidin-3-yl)pyrrolidine-3-carboxylic acid]?
Answer: IC50 (human arginase I (ARG I)): 0.1 to 250 nM; IC50 [1]: 251 to 1000 nM

Question: Which IC50 (human arginase I (ARG I)) does the source give for N[C@@]1(C(=O)O)CCN[C@@H]1CCCB(O)O [Example 10, (2R,3S)-3-amino-2-(3-boronopropyl)pyrrolidine-3-carboxylic acid] here?
Answer: The IC50 was greater than 5000 nM.

Question: And the IC50 [1]?
Answer: Its IC50 is greater than 5000 nM.

Question: With N[C@@]1(C(=O)O)C[C@@H](NCc2ccccc2)C[C@@H]1CCCB(O)O (racemic) [Example 62, (1S,2S,4S)-1-amino-4-(benzylamino)-2-(3-boronopropyl)cyclopentanecarboxylic acid] as the molecule, how does the IC50 (human arginase I (ARG I)) read?
Answer: The IC50 was 0.1 to 250 nM.

Question: And the IC50 [1]?
Answer: Its IC50 is 0.1 to 250 nM.

Question: With NC(Cc1ccccc1)CN1C[C@H](CCCB(O)O)[C@](N)(C(=O)O)C1 (mixture of isomers) [Example 57, (3R,4S)-3-amino-1-(2-amino-3-phenylpropyl)-4-(3-boronopropyl)pyrrolidine-3-carboxylic acid] as the molecule, how does the IC50 (human arginase I (ARG I)) read?
Answer: Its IC50 is 0.1 to 250 nM.

Question: What about the IC50 [1] of the same molecule?
Answer: The IC50 was 0.1 to 250 nM.

Question: Which IC50 (human arginase I (ARG I)) does the source give for N[C@@]1(C(=O)O)CN(C(=O)C2Cc3ccc(Cl)cc3CN2)C[C@@H]1CCCB(O)O (stereo partly drawn) [Example 56, (3R,4S)-3-amino-4-(3-boronopropyl)-1-(7-chloro-1,2,3,4-tetrahydroisoquinoline-3-carbonyl)pyrrolidine-3-carboxylic acid] here?
Answer: Its IC50 is 0.1 to 250 nM.

Question: And the IC50 [1]?
Answer: The IC50 was 0.1 to 250 nM.

Question: For COc1ccc(C(=O)N2C[C@H](CCCB(O)O)[C@](N)(C(=O)O)C2)cc1 [Example 47, (3R,4S)-3-amino-4-(3-boronopropyl)-1-(4-methoxybenzoyl)pyrrolidine-3-carboxylic acid], which IC50 (human arginase I (ARG I)) is on record?
Answer: Its IC50 is 251 to 1000 nM.

Question: What about the IC50 [1] of the same molecule?
Answer: Its IC50 is 251 to 1000 nM.

Question: N[C@@]1(C(=O)O)CN(C(=O)Nc2ccc(Cl)cc2)C[C@@H]1CCCB(O)O [Example 42, (3R,4S)-3-amino-4-(3-boronopropyl)-1-(4-chlorophenylcarbamoyl)pyrrolidine-3-carboxylic acid] was tested. Which IC50 (human arginase I (ARG I)) did it give?
Answer: Its IC50 is 251 to 1000 nM.

Question: What about the IC50 [1] of the same molecule?
Answer: The IC50 was 251 to 1000 nM.

Question: What does the source list for N[C@@]1(C(=O)O)CN(CC2Cc3ccc(Cl)cc3CN2)C[C@@H]1CCCB(O)O (stereo partly drawn) [Example 49, (3R,4S)-3-amino-4-(3-boronopropyl)-1-((7-chloro-1,2,3,4-tetrahydroisoquinolin-3-yl)methyl)pyrrolidine-3-carboxylic acid]?
Answer: IC50 (human arginase I (ARG I)): 0.1 to 250 nM; IC50 [1]: 0.1 to 250 nM

Question: N[C@@]1(C(=O)O)CCNC[C@H]1CCCB(O)O [Example 6, (3R,4S)-4-amino-3-(3-boronopropyl)piperidine-4-carboxylic acid] was tested. Which IC50 (human arginase I (ARG I)) did it give?
Answer: Its IC50 is 251 to 1000 nM.

Question: What about the IC50 [1] of the same molecule?
Answer: Its IC50 is 2000 to 5000 nM.

Question: For N[C@@]1(C(=O)O)CN(CC2CCNCC2)C[C@@H]1CCCB(O)O [Example 15], which IC50 (human arginase I (ARG I)) is on record?
Answer: Its IC50 is 251 to 1000 nM.

Question: And the IC50 [1]?
Answer: The IC50 was 1000 to 2000 nM.

Question: With N[C@@]1(C(=O)O)CN(CC2Cc3ccc(C(F)(F)F)cc3CN2)C[C@@H]1CCCB(O)O (stereo partly drawn) [Example 55, (3R,4S)-3-amino-4-(3-boronopropyl)-1-((7-(trifluoromethyl)-1,2,3,4-tetrahydroisoquinolin-3-yl)methyl)pyrrolidine-3-carboxylic acid] as the molecule, how does the IC50 (human arginase I (ARG I)) read?
Answer: Its IC50 is 0.1 to 250 nM.

Question: And the IC50 [1]?
Answer: Its IC50 is 0.1 to 250 nM.

Question: With CN(C)CC(C)(C)CN1C[C@H](CCCB(O)O)[C@](N)(C(=O)O)C1 [Example 17, (3R,4S)-3-amino-4-(3-boronopropyl)-1-(3-(dimethylamino)-2,2-dimethylpropyl)pyrrolidine-3-carboxylic acid] as the molecule, how does the IC50 (human arginase I (ARG I)) read?
Answer: Its IC50 is 2000 to 5000 nM.
